Data from patent US20120034193A1, “TREATMENT OF NEUROTROPHIC FACTOR MEDIATED DISORDERS” (priority 2009, published 2012).
Marks after values point to notes of the source that are not given here.

How the values were obtained:
Acetylcholinesterase = Acetylcholinesterase (Homo sapiens, UniProt P22303); experiment: Enzyme activity assay; type: biochemical; details: sarsasapogenin 10 μM
Protocol: (§1) The enzyme activity modulation was investigated using the following method: Sarsasapogenin was incubated with each enzyme plus a specific substrate for each enzyme. After the incubation period the reaction was stopped and the reduction of the specific substrate or the increase in a specific product in the absence and presence of sarsasapogenin was measured and the percent inhibition of the reaction in the presence of sarsasapogenin was calculated. The amount of enzyme used, the incubation conditions, the substrate used and the method of quantification varied depending on each specific assay.

[1] = molecular target: Choline acetyltransferase (Homo sapiens, UniProt P28329); experiment: Enzyme activity assay; type: biochemical; details: sarsasapogenin 100 μM
Protocol: as §1

[2] = molecular target: 5-Hydroxytryptamine, 5-HT1B (Rattus norvegicus, UniProt P28564); experiment: Binding assay; details: smilagenin 1 μM
Protocol: (§2) The receptor binding was investigated using the following method: Sarsasapogenin was incubated with tissue or cell homogenate that expressed the receptor of interest and a known concentration a radiolabelled compound with affinity for the receptor of interest. After the incubation period the non-bound radiolabelled compound was removed and the amount of specific binding was quantified. The amount of specific binding in the presence and absence of sarsasapogenin were compared and the percent inhibition of the binding of the radiolabelled compound by sarsasapogenin was calculated. The source of the receptor, the incubation conditions, the radiolabelled compound used varied depending on each specific assay.
(§3) Using the same methods as described above, the binding of smilagenin (1 μM) to the receptors listed in Table 2 below, and the effect of smilagenin on the activity of the enzymes listed in Table 2 below, were investigated.

Adensonine A3 = Adensonine A3 (Homo sapiens, UniProt P0DMS8); experiment: Binding assay; details: smilagenin 1 μM
Protocol: as §2, §3

Adrenergic β2 = Adrenergic β2 (Homo sapiens, UniProt P07550); experiment: Binding assay; details: smilagenin 1 μM
Protocol: as §2, §3

[3] = molecular target: Androgen (testosterone) AR (Rattus norvegicus, UniProt P15207); experiment: Binding assay; details: smilagenin 1 μM
Protocol: as §2, §3

Cannabinoid CB2 = Cannabinoid CB2 (Homo sapiens, UniProt P34972); experiment: Binding assay; details: smilagenin 1 μM
Protocol: as §2, §3

Melanocortin MC5 = Melanocortin MC5 (Homo sapiens, UniProt P33032); experiment: Binding assay; details: smilagenin 1 μM
Protocol: as §2, §3

Prostanoid EP4 = Prostanoid EP4 (Homo sapiens, UniProt P35408); experiment: Binding assay; details: smilagenin 1 μM
Protocol: as §2, §3

Transporter, Choline = Transporter, Choline (Rattus norvegicus, UniProt Q9JMD7); experiment: Binding assay; details: smilagenin 1 μM
Protocol: as §2, §3

[4] = molecular target: 5-Hydroxytryptamine, 5-HT4 (Cavia porcellus, UniProt O70528); experiment: Binding assay; parameters: species or system Guinea pig; details: smilagenin 1 μM
Protocol: as §2, §3

[5] = tested on: Atrial Natriuretic Factor; experiment: Binding assay; parameters: species or system Guinea pig; details: smilagenin 1 μM
Protocol: as §2, §3

Transporter, Adenosine = experiment: Binding assay; parameters: species or system Guinea pig; details: smilagenin 1 μM
Protocol: as §2, §3

BDNF mRNA = BDNF mRNA expression in rat cortical neurones after 48 h incubation (rt RT-PCR); type: cell-based; details: 10 μM, mean ± s.e.mean, n = 3
Protocol: In a separate experiment, rat cortical neurones were cultured by modification of a method previously described (Eckenstein and Sofroniew, Journal of Neuroscience, 1983, 3, pp. 2286-2291). On day 8, the culture medium was changed to a medium containing vehicle (DMSO, 0.5%) or smilagenin (10 μM) for 48 h and the level of BDNF mRNA in the cortical neurones was assessed by rt RT-PCR.

[6] = tested on: Rat dopaminergic neurones; experiment: TH positive neurones and neurite outgrowth after MPP+ exposure; type: cell-based; details: 10 μM from day 6, MPP+ 2 μM day 8 for 48 h
Protocol: Rat dopaminergic neurones were prepared using a slightly modified previously described method (Brouard et al., Journal of Neuroscience, 1992, 12, pp. 1409-1415). On day 6 the culture medium was replaced with fresh medium or fresh medium containing smilagenin (10 μM) or vehicle (DMSO, 0.25%). On day 8, MPP^+ (2 μM) or vehicle (saline) was added and 48 h later dopaminergic neurones were stained and the concentration of GDNF in the culture medium, neuronal damage and neurite outgrowth were assessed.

GDNF [7] = experiment: Striatal GDNF in MPTP-lesioned mice (ELISA); type: in vivo, C57b1/6 RJ mice; details: smilagenin 10 mg/kg/day oral, 60 days, striatum
Protocol: (§4) Seven-week old male C57b1/6 RJ mice (C57 mice) received daily injections 1-methyl-4-phenyl-1,2,3,6-tetrahydropyridine (MPTP, 25 mg/kg/day, i.p., for 5 consecutive days) and oral administration of smilagenin (10 mg/kg/day) or vehicle (hydroxylpropylmethylcellulose, HPMC 0.5% w/v containing tween-80 0.2% v/v) for 60 days after which time their brains were removed for quantification of striatal levels of GDNF and BDNF using an ELISA and of dopamine transporter (DAT) levels using [I^125]-RTI binding. DAT is a marker for neuronal damage to dopaminergic neurones.

[8] = tested on: dopamine transporter (DAT); experiment: Striatal DAT level in MPTP-lesioned mice ([I^125]-RTI binding), 60 days; type: in vivo, C57b1/6 RJ mice; details: 10 mg/kg/day oral, control 74.4, MPTP 23.4
Protocol: as §4

MPTP-lesioned macaques = experiment: Parkinsonian disability in MPTP-lesioned macaques; type: in vivo, Macaca fascicularis
Protocol: (§5) Nineteen female cynomolgus monkeys (Macaca fascicularis, 3.0-4.5 kg, 4-6 years old) were acclimatised to the experimental setting and procedures for 3 months and baseline behaviour was assessed in all animals. Fourteen female macaques received MPTP (0.2 mg/kg/day, s.c.) until marked, stable, parkinsonian symptoms developed. Animals (n=7/group) were randomly assigned to two groups; smilagenin (20 mg/kg/day, p.o.) or vehicle control (HPMC, 0.5% w/v containing Tween 80, 0.2% v/v).
(§6) Assessments of parkinsonian disability were made after MPTP administration and following 18 weeks of smilagenin or vehicle administration. Parkinsonian disability was evaluated by post hoc analysis of DVD-recordings by a neurologist blinded to the treatment. At the end of the study the brains were removed and the levels of unbound GDNF and BDNF in the putamen were measured using Multiplex ELISA/Aushon assays. The MPTP treated macaques used in this experiment thus provide an accepted model for Parkinson's disease and similar motor-sensory neurodegenerative conditions.

GDNF [9] = experiment: Unbound GDNF in the putamen of MPTP-lesioned macaques; type: in vivo, Macaca fascicularis; details: smilagenin 20 mg/kg/day p.o., 18 weeks; control 9.52, MPTP 15.33
Protocol: as §5, §6

Chain of Adrenergic β2 (P07550 whole entry): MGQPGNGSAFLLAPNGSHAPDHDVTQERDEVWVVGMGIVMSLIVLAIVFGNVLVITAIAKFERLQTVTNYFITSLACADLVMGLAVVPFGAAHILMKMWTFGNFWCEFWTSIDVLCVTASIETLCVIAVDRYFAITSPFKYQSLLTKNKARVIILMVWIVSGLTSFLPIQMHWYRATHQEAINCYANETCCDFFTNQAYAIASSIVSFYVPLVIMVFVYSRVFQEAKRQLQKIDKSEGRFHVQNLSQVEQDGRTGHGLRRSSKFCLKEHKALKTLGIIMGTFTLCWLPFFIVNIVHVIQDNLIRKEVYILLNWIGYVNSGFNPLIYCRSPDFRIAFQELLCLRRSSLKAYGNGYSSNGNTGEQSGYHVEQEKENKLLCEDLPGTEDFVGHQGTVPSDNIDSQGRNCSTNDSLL
Chain of Androgen (testosterone) AR (P15207 whole entry S389L): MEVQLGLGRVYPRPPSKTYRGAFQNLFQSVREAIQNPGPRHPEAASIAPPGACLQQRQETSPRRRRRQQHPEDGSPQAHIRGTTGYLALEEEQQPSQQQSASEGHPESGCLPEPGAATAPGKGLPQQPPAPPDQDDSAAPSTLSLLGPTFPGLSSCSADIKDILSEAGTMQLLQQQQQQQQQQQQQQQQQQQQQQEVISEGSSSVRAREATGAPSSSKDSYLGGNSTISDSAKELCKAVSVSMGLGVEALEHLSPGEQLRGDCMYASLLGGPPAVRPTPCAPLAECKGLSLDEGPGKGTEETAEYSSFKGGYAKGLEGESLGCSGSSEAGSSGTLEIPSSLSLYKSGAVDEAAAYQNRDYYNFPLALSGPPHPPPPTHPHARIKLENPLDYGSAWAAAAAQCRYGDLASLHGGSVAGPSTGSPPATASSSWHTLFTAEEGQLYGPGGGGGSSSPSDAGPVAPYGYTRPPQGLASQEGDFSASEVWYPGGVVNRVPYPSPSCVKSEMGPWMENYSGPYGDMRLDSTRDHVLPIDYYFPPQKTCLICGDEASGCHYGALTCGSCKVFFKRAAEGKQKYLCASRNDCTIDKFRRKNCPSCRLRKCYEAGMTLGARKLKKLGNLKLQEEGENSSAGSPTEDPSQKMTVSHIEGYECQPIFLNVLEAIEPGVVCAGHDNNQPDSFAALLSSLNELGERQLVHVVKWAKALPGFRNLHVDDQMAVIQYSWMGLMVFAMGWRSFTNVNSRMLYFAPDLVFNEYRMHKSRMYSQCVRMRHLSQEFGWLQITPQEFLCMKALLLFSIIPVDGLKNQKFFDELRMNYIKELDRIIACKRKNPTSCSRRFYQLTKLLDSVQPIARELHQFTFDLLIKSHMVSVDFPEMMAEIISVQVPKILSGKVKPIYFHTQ
Chain of Prostanoid EP4 (P35408 whole entry): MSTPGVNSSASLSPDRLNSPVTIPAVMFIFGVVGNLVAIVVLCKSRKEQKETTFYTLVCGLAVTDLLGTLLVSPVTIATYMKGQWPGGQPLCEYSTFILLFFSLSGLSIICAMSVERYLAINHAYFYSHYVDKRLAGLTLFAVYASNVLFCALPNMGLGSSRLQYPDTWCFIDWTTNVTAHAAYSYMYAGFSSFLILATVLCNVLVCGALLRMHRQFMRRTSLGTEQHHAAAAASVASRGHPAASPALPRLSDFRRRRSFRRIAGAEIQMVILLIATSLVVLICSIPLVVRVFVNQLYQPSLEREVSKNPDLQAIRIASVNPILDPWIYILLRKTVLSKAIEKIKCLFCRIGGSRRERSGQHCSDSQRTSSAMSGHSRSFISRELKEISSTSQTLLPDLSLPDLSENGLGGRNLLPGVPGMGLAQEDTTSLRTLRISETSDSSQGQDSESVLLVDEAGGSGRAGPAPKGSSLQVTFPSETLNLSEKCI
Chain of Melanocortin MC5 (P33032 whole entry): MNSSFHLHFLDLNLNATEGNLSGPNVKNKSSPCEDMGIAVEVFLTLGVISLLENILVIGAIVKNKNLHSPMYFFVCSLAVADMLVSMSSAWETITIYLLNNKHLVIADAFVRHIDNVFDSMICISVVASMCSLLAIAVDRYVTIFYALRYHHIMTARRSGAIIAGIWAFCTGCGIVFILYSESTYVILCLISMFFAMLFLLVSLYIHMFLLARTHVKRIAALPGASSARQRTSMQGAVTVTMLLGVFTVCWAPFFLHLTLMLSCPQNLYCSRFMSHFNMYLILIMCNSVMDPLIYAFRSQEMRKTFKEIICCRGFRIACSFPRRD
Chain of 5-Hydroxytryptamine, 5-HT1B (P28564 whole entry): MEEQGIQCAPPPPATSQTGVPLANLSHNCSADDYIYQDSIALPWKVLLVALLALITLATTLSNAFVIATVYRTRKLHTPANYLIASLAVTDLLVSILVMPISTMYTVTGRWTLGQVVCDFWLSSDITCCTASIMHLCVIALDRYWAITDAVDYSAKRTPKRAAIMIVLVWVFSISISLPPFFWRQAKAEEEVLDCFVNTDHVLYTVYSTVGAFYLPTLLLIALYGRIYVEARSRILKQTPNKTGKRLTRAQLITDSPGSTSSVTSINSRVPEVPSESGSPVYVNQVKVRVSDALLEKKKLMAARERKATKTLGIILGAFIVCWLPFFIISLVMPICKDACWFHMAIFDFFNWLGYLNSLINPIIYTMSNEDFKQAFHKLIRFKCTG
Chain of Adensonine A3 (P0DMS8 whole entry): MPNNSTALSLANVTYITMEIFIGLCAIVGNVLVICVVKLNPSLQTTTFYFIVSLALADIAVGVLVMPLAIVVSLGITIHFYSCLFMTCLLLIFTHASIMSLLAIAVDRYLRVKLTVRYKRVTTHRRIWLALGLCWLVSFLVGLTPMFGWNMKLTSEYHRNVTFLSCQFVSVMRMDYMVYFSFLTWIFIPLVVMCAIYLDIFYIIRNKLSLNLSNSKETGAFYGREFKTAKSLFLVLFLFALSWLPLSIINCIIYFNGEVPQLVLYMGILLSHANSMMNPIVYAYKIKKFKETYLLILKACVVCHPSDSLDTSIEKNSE
Chain of Cannabinoid CB2 (P34972 whole entry): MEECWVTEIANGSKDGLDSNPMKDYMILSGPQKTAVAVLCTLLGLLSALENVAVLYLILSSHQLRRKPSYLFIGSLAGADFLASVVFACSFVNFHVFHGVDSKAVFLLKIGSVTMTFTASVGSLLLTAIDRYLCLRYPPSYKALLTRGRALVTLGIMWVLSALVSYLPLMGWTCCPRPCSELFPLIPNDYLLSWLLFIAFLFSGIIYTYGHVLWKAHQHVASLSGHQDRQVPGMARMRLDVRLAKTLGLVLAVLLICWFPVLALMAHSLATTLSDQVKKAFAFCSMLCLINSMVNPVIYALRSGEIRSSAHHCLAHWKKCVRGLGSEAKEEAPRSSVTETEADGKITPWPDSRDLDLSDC
Chain of Acetylcholinesterase (P22303 32-614): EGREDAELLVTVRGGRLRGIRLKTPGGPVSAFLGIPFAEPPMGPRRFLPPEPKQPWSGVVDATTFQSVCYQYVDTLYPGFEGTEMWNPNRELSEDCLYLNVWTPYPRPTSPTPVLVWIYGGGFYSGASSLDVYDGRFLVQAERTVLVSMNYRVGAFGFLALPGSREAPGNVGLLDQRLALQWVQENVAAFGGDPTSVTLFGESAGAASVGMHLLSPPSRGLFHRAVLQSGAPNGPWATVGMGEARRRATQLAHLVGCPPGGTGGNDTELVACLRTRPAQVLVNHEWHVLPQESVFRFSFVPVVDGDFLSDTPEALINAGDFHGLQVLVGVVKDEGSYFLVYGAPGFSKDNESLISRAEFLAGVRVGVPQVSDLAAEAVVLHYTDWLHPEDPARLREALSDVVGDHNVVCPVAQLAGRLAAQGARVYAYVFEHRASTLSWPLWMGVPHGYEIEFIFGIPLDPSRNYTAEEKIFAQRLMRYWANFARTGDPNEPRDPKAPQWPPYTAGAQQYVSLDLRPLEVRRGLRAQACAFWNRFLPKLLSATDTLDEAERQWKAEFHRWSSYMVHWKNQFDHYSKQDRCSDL
Chain of Transporter, Choline (Q9JMD7 whole entry): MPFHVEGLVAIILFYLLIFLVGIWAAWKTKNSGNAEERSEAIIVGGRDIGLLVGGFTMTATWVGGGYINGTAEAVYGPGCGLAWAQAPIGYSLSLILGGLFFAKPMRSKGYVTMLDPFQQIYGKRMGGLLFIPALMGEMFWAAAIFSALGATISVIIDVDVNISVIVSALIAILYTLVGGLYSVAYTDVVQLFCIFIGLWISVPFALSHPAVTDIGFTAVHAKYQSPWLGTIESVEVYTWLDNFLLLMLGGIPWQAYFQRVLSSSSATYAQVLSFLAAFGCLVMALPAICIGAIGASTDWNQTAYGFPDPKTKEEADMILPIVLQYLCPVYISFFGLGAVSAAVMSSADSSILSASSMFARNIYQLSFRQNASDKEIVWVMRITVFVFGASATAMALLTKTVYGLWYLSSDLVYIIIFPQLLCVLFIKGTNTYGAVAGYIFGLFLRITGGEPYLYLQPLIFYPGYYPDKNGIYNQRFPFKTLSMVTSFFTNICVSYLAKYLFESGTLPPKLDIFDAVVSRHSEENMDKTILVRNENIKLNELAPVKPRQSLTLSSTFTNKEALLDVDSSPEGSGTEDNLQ
Chain of 5-Hydroxytryptamine, 5-HT4 (O70528 whole entry): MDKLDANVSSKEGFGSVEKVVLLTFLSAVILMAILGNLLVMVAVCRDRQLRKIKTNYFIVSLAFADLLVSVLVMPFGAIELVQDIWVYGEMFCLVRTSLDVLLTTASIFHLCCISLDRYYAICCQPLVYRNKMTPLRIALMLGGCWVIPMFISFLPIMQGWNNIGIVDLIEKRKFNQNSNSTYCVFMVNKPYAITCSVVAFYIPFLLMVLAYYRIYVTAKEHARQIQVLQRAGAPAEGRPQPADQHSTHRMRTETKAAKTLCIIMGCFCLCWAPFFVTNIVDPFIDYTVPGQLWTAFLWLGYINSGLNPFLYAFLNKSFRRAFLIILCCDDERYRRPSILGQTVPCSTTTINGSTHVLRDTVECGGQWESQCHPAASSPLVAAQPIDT

## C[C@H]1CC[C@@]2(OC1)O[C@H]1C[C@H]3[C@@H]4CC[C@@H]5C[C@@H](O)CC[C@]5(C)[C@H]4CC[C@]3(C)[C@H]1[C@@H]2C [Sarsasapogenin, sarsasapogenin]
Acetylcholinesterase
  Effect (%): NS (NS = No significant response. Significance was taken as ≧30% stimulation or inhibition)
[1]
  Effect (%): NS (NS = No significant response. Significance was taken as ≧30% stimulation or inhibition)

## C[C@@H]1CC[C@@]2(OC1)O[C@H]1C[C@H]3[C@@H]4CC[C@@H]5C[C@@H](O)CC[C@]5(C)[C@H]4CC[C@]3(C)[C@H]1[C@@H]2C [Smilagenin, smilagenin]
[2]
  Effect (%): NS (NS = No significant response. Significance was taken as ≧30% stimulation or inhibition)
Adensonine A3
  Effect (%): NS (NS = No significant response. Significance was taken as ≧30% stimulation or inhibition)
Adrenergic β2
  Effect (%): NS (NS = No significant response. Significance was taken as ≧30% stimulation or inhibition)
[3]
  Effect (%): NS (NS = No significant response. Significance was taken as ≧30% stimulation or inhibition)
Cannabinoid CB2
  Effect (%): NS (NS = No significant response. Significance was taken as ≧30% stimulation or inhibition)
Melanocortin MC5
  Effect (%): NS (NS = No significant response. Significance was taken as ≧30% stimulation or inhibition)
Prostanoid EP4
  Effect (%): NS (NS = No significant response. Significance was taken as ≧30% stimulation or inhibition)
Transporter, Choline
  Effect (%): NS (NS = No significant response. Significance was taken as ≧30% stimulation or inhibition)
[4]
  Effect (%): NS (NS = No significant response. Significance was taken as ≧30% stimulation or inhibition)
[5]
  Effect (%): NS (NS = No significant response. Significance was taken as ≧30% stimulation or inhibition)
Transporter, Adenosine
  Effect (%): NS (NS = No significant response. Significance was taken as ≧30% stimulation or inhibition)
BDNF mRNA
  Relative amount of BDNF mRNA (% of control): 103.9 ± 6.5 % of control
[6]
  Neurite outgrowth (% of control): 62.1 ± 7.0 % of control
  Number of TH positive neurones per field (% of control): 57.1 ± 5.2 % of control
GDNF [7]
  GDNF (% increase above MPTP mice): 372 ± 92 %
  GDNF (pg/mg tissue): 275.31 ± 59.62 pg/mg tissue
[8]
  DAT level ([I^125]-RTI binding in the striatum; nCi/g protein): 69.7 ± 8.8 nCi/g protein
MPTP-lesioned macaques; baseline of the smilagenin group, before dosing
  Median parkinsonian disability post-MPTP administration: 47.17
MPTP-lesioned macaques; smilagenin 20 mg/kg/day p.o., 18 weeks, MPTP vehicle group 41.67
  Median parkinsonian disability at week 18: 27.00^###
GDNF [9]
  Mean ± s.e.mean of unbound GDNF level in the putamen (pg/mg protein): 5.09 ± 1.35 pg/mg protein
